Entries after “also recorded” stand apart in the source; their conditions may differ.
Tests used:
[1] = Hepatic tissue level quantification by HRGC/HRMS; assay type: in vivo, C57BL/6 mice; settings: liver, 168 h vs 24 h; single gavage 300 mg/kg PCB153 or 30 μg/kg TCDD
[2] = Body and liver weights, time course study; assay type: in vivo, C57BL/6 mice; settings: 300 mg/kg PCB153 or 30 μg/kg TCDD, mean ± SD, n=5; for Body weight gain: terminal body weight divided by body weight prior to dosing
hepatic gene expression [3] = assay: QRT-PCR verification of hepatic gene expression; assay type: in vivo, C57BL/6 mice
[4] = test system: liver of immature, ovariectomized C57BL/6 mice; settings: ref Boverhof et al. 2005; Kopec et al. 2008; cited from earlier work
hepatic gene expression [5] = settings: hepatic mRNA, cDNA microarray, 30 μg/kg TCDD; maximum fold change, |fold change|≥1.5, P1(t)≥0.90; ref Boverhof et al. 2005; cited from earlier work
[6] = test system: liver of immature, ovariectomized C57BL/6 mice; assay: Liver histopathology; assay type: in vivo; settings: 300 mg/kg PCB153 or 30 μg/kg TCDD
hepatic gene expression [7] = assay: Hepatic gene expression, Agilent 4 x 44K microarrays; assay type: in vivo, C57BL/6 mice; settings: hepatic mRNA, 30 μg/kg TCDD; maximum fold change, |fold change|≥1.5, P1(t)≥0.90
[8] = liver, PCB126; ref Kopec et al. 2008; cited from earlier work
[9] = 300 μg/kg PCB126; ref Kopec et al. 2008; cited from earlier work

## Clc1cc2c(cc1Cl)Oc1cc(Cl)c(Cl)cc1O2 [TCDD, 2,3,7,8-tetrachlorodibenzo-p-dioxin, reference compound]
[1]
  Decrease of hepatic level after 7 days: ~ 1.4 fold
[2]; 4 h
  Liver weight: 0.733 ± 0.044 g
  Relative liver weight: 0.054 ± 0.003
  Body weight gain: 1.0 ± 0.0
[2]; 4 h after single gavage
  Terminal body weight: 13.6 ± 0.8 g
[2]; 12 h
  Liver weight: 0.724 ± 0.025 g
  Relative liver weight: 0.056 ± 0.001
  Body weight gain: 1.1 ± 0.0
[2]; 12 h after single gavage
  Terminal body weight: 12.8 ± 0.7 g
[2]; 24 h
  Liver weight: 0.973 ± 0.088 g
  Relative liver weight: 0.068 ± 0.003
  Body weight gain: 1.1 ± 0.0
[2]; 24 h after single gavage
  Terminal body weight: 14.2 ± 0.9 g
[2]; 72 h
  Liver weight: 1.068 ± 0.060 g
  Relative liver weight: 0.071 ± 0.003
  Body weight gain: 1.2 ± 0.1
[2]; 72 h after single gavage
  Terminal body weight: 15.1 ± 0.7 g
[2]; 168 h
  Liver weight: 1.263 ± 0.080 g
  Relative liver weight: 0.072 ± 0.003
  Body weight gain: 1.3 ± 0.0
[2]; 168 h after single gavage
  Terminal body weight: 17.5 ± 0.4 g
Hepatic gene expression [3]; 30 μg/kg TCDD, Table 3 and Fig. 5C
  Regulation of PCB153-responsive (CAR/PXR) genes by TCDD: reciprocally modest; also recorded: minimal differential expression
Hepatic gene expression [3]; hepatic mRNA, time course, 30 μg/kg TCDD (Fig. 6A) or 300 mg/kg PCB153 (Fig. 6B)
  Cyp1a2 induction: ~ 30 fold
Hepatic gene expression [3]; hepatic mRNA, time course, 300 mg/kg PCB153 or 30 μg/kg TCDD (Fig. 6A-B)
  Elovl5 fold change: 2.2 fold
[4]
  Hepatocyte cell size and number: not affected
Hepatic gene expression [5]
  TCDD time course Boverhof et al., Abcc3 fold change: 1.5 fold
  TCDD time course Boverhof et al., Agpat4 fold change: no change
  TCDD time course Boverhof et al., Akr1b7 fold change: no change
  TCDD time course Boverhof et al., Cds2 fold change: no change
  TCDD time course Boverhof et al., Ces2 fold change: 1.6 fold
  TCDD time course Boverhof et al., Cyp2b10 fold change: no change
  TCDD time course Boverhof et al., Dhfr fold change: −1.5 fold
  TCDD time course Boverhof et al., Elovl6 fold change: −1.8 fold
  TCDD time course Boverhof et al., Fasn fold change: −1.9 fold
  TCDD time course Boverhof et al., Fmo5 fold change: no change
  TCDD time course Boverhof et al., Gadd45b fold change: 4.6 fold
  TCDD time course Boverhof et al., Gpx2 fold change: no change
  TCDD time course Boverhof et al., Gsta2 fold change: 7.2 fold
  TCDD time course Boverhof et al., Gstt3 fold change: no change
  TCDD time course Boverhof et al., Insig2 fold change: no change
  TCDD time course Boverhof et al., Myc fold change: 3.7 fold
  TCDD time course Boverhof et al., Nol3 fold change: no change
  TCDD time course Boverhof et al., Slc1a4 fold change: no change
  TCDD time course Boverhof et al., Srebf1 fold change: −2.1 fold
  TCDD time course Boverhof et al., Srebf2 fold change: 1.5 fold
  TCDD time course Boverhof et al., Ugdh fold change: 3.1 fold
[6]
  Hepatic lipid accumulation, Oil Red O staining: significant lipid accumulation
  Necrosis and immune (mixed) cell infiltration in liver: more dramatic vacuolization, and necrosis, as well as mixed cell infiltration
[6]; time course
  Hepatic inflammation: moderate multifocal inflammation; also recorded: instances of multifocal inflammation
[6]; Fig. 2 at 168 h
  Hepatocellular vacuolization, time course study: more severe; also recorded: slight to moderate vacuolization
Hepatic gene expression [7]
  TCDD fold change, Abcc3: 1.7 fold
  TCDD fold change, Acsl3: −2.3 fold
  TCDD fold change, Agpat4: no change
  TCDD fold change, Akr1b7: no change
  TCDD fold change, Akr1c20: −1.7 fold
  TCDD fold change, Aox1: 2.2 fold
  TCDD fold change, Cdca2: no change
  TCDD fold change, Cds2: no change
  TCDD fold change, Ces2: 2.5 fold
  TCDD fold change, Cyp2b9: no change
  TCDD fold change, Cyp2b10: 2.3 fold
  TCDD fold change, Cyp2b23: no change
  TCDD fold change, Cyp2c54: no change
  TCDD fold change, Cyp2c55: 1.8 fold
  TCDD fold change, Cyp3a25: no change
  TCDD fold change, Dhfr: no change
  TCDD fold change, Elovl6: −4.3 fold
  TCDD fold change, Fasn: −4.3 fold
  TCDD fold change, Fmo5: no change
  TCDD fold change, Gadd45a: −3.6 fold
  TCDD fold change, Gadd45b: 3.2 fold
  TCDD fold change, Gpx2: no change
  TCDD fold change, Gsta2: 5.9 fold
  TCDD fold change, Gstm4: 2.4 fold
  TCDD fold change, Gstt3: 1.5 fold
  TCDD fold change, Hmgcr: −2.6 fold
  TCDD fold change, Hsd17b2: 2.2 fold
  TCDD fold change, Insig2: −1.7 fold
  TCDD fold change, Mad1l1: no change
  TCDD fold change, Myc: 3.0 fold
  TCDD fold change, Nol3: no change
  TCDD fold change, Pla2g12a: 3.1 fold
  TCDD fold change, Slc1a4: no change
  TCDD fold change, Slc23a1: −1.7 fold
  TCDD fold change, Smpd3: −2.6 fold
  TCDD fold change, Srebf1: −2.3 fold
  TCDD fold change, Srebf2: −1.7 fold
  TCDD fold change, Ugdh: 2.7 fold
  TCDD fold change, Zwint: no change

## Clc1ccc(-c2cc(Cl)c(Cl)c(Cl)c2)cc1Cl [PCB126, 3,3′,4,4′,5-pentachlorobiphenyl]
[8]
  Hepatic level over time: continued to increase throughout the study, reaching the highest concentration at 7 days
[9]
  Effect on relative liver weight (RLW): also increased RLW at later time points
[4]
  Hepatocyte cell size and number: not affected

From publication PMC3987113 (Toxicology and applied pharmacology, 2009)
